How the values were obtained:
PI3Kα = PI3Kα (Homo sapiens (Human), UniProt P42336); assay: Test 1: PI3 Kinase Assay (PI3K KinaseGlo assay); assay type: biochemical; conditions: 1 μM ATP
[1] = tested on: constitutively active mTOR; assay: Test 3: TSC Assay (high content imaging of phospho-S6 (240/244) in TSC1−/− MEFs); assay type: cell-based; conditions: Mus musculus, pS6 240/244 staining, 2 hrs compound treatment
FRAP1/mTOR = FRAP1/mTOR (Homo sapiens (Human), UniProt P42345); assay: Test 2: mTOR Biochemical Assay (FRAP1/mTOR TR-FRET tracer assay); assay type: binding; conditions: mTOR Kinase Tracer 314
Chain of FRAP1/mTOR (P42345 1360-2549): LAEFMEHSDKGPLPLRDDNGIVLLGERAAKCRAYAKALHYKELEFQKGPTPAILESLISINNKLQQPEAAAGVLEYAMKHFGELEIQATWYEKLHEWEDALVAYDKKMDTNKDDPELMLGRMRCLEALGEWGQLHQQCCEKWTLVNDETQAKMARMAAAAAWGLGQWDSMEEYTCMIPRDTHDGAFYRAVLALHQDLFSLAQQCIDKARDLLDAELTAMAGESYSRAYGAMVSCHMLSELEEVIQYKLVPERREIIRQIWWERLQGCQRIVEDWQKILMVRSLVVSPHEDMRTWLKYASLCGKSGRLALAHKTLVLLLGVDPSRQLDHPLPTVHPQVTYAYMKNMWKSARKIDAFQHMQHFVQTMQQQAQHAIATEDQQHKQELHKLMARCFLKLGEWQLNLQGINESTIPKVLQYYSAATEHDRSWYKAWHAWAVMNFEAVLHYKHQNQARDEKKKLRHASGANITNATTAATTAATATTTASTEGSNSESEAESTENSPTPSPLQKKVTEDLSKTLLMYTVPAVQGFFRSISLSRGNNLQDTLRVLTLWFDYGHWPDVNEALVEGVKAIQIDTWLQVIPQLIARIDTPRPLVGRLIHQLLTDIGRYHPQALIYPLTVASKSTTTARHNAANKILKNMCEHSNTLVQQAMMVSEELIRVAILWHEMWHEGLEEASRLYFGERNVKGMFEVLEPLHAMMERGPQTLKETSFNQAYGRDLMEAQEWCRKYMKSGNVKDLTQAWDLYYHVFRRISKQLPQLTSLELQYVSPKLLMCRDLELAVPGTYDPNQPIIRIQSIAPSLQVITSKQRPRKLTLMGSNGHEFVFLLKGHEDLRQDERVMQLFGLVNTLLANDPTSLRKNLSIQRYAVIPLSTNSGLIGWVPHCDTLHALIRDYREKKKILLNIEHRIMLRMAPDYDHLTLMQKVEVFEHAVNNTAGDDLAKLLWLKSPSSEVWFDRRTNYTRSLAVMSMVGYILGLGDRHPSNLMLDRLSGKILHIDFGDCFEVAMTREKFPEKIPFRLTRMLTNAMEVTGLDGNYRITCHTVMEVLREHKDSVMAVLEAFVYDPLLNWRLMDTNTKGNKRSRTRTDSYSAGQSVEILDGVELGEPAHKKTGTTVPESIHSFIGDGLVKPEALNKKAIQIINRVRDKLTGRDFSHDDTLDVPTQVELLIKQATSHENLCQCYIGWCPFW

Chain of PI3Kα (P42336 other isoform, or with tags, fused parts or gaps): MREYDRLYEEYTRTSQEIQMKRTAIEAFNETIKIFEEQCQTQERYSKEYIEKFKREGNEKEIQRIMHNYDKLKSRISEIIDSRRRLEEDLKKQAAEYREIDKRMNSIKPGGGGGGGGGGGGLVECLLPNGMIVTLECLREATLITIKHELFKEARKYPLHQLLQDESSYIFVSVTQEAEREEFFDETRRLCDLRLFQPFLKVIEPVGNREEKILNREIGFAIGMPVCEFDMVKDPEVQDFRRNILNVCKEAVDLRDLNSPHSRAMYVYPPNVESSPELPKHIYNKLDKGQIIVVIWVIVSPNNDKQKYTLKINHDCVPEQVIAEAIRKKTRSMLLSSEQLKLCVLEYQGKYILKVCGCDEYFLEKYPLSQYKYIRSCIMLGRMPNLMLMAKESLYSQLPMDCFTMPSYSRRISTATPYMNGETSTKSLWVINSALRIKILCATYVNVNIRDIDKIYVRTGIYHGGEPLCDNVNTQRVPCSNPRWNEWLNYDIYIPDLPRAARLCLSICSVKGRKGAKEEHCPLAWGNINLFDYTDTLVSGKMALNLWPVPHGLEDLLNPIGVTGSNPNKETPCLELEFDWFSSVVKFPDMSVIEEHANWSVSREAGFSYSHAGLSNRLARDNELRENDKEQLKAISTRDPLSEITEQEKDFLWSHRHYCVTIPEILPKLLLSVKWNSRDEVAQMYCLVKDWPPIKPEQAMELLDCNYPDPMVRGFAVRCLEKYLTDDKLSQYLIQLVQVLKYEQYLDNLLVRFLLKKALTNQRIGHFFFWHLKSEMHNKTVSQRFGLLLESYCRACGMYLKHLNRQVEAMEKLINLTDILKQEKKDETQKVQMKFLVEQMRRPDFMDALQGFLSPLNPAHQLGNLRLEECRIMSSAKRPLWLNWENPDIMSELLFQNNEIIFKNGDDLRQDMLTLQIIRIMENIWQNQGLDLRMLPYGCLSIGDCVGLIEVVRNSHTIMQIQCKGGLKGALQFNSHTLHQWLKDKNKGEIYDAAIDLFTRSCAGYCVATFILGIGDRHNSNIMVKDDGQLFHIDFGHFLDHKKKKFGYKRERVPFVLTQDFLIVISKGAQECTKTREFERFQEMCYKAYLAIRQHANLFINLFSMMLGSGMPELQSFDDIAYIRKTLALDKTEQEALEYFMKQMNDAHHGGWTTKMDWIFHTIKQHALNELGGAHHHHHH

Row | IC50 (PI3Kα) [nM] | IC50 [1] [nM] | IC50 (FRAP1/mTOR) [nM] | SMILES
1 | > 9100 | 8000 |  | C[C@@H]1CN(c2nc(N3CCOCC3)c3nc(-c4ccccc4CO)[nH]c3n2)C[C@H](C)O1 [Example 34, {2-[2-((2S,6R)-2,6-Dimethyl-morpholin-4-yl)-6-morpholin-4-yl-9H-purin-8-yl]-phenyl}-methanol]
2 | 20 | 73 |  | Oc1cccc(-c2nc3c(N4CCOCC4)nc(N4CCOCC4)nc3[nH]2)c1 [Example 36, 3-(2,6-Di-morpholin-4-yl-9H-purin-8-yl)-phenol]
3 | 2520 | 1040 | 1040 | C[C@@H]1CN(c2nc(N3CCOCC3)c3nc(-c4cccc(N)c4)[nH]c3n2)C[C@H](C)O1 [Example 32, 3-[2-((2S,6R)-2,6-Dimethyl-morpholin-4-yl)-6-morpholin-4-yl-9H-purin-8-yl]-phenylamine]
4 | 2540 | 455 |  | COc1ccc(-c2nc3c(N4CCOC[C@@H]4C)nc(N4CCOC[C@@H]4C)nc3[nH]2)cc1CO [Example 7, {5-[2,6-Bis-((S)-3-methyl-morpholin-4-yl)-9H-purin-8-yl]-2-methoxy-phenyl}-methanol]
5 | 480 | > 50000 |  | Oc1ccccc1-c1nc2c(N3CCOCC3)nc(N3CCOCC3)nc2[nH]1 [Example 38, 2-(2,6-Di-morpholin-4-yl-9H-purin-8-yl)-phenol]
6 | 10 | 620 |  | OCc1cccc(-c2nc3c(N4CCOCC4)nc(N4CCOCC4)nc3[nH]2)c1 [Example 37, [3-(2,6-Di-morpholin-4-yl-9H-purin-8-yl)-phenyl]-methanol]
7 | > 9100 | 1450 | 30 | C[C@H]1COCCN1c1nc(N2CCOC[C@@H]2C)c2nc(-c3ccc4[nH]c(=O)[nH]c4c3)[nH]c2n1 [Example 6, 5-[2,6-Bis-((S)-3-methyl-morpholin-4-yl)-9H-purin-8-yl]-1,3-dihydro-benzoimidazol-2-one]
8 | 590 | 315 |  | Cc1cc2c(-c3nc4c(N5CCOCC5)nc(N5CCOCC5)nc4[nH]3)cccc2[nH]1 [Example 31, 8-(2-Methyl-1H-indol-4-yl)-2,6-di-morpholin-4-yl-9H-purine]
9 | 5870 | 4010 |  | OCc1ccccc1-c1nc2c(N3CCOCC3)nc(N3CCOCC3)nc2[nH]1 [Example 35, [2-(2,6-Di-morpholin-4-yl-9H-purin-8-yl)-phenyl]-methanol]
10 | 20 | 118 |  | C[C@@H]1CN(c2nc(N3CCOCC3)c3nc(-c4cccc(O)c4)[nH]c3n2)C[C@H](C)O1 [Example 1, 3-[2-((2S,6R)-2,6-Dimethyl-morpholin-4-yl)-6-morpholin-4-yl-9H-purin-8-yl]-phenol]
11 | 8540 | 632 | 85 | C[C@H]1COCCN1c1nc(N2CCOCC2)nc2[nH]c(-c3ccc4cc[nH]c4c3)nc12 [Example 24, 8-(1H-Indol-6-yl)-6-((S)-3-methyl-morpholin-4-yl)-2-morpholin-4-yl-9H-purine]
